# Measurements published in ChEMBL document CHEMBL1157539, “Thousands of chemical starting points for antimalarial lead identification” (Nature, 2010).
# Values joined by “and” are separate entries in the source; they are usually repeats but may differ in a detail not shown here. Equal entries are not always repeated.
# System: Plasmodium falciparum
# Test: GSK_TCMDC: Inhibition of Plasmodium falciparum 3D7 in whole erythrocytes, using parasite LDH activity as an index of growth.
# Format: functional, organism-based
# Details: not given
row,SMILES,XC50
1,Cc1cc(=O)c(-c2ccc(Oc3cccc(C(F)(F)F)c3)cc2)c(C)[nH]1,629 nM and 209 nM

# Same assay, conditions: Plasmodium falciparum, 3D7
row,SMILES,XC50 [nM]
1,CSc1ccc(CN2CCC(NC(=O)c3ccc(-c4cccc(C(F)(F)F)c4)s3)CC2)cc1,1220
2,Cc1cccc2nc(-c3cccc(-c4cccc(NC(=O)c5cnn6cccnc56)c4)c3)[nH]c12,671
3,Cc1cc(NC(=O)NCCN2CCC(NC(=O)c3ccc(C(F)(F)F)cc3)CC2)c2ccccc2n1,413
4,OC(c1ccccc1)C1CN(Cc2ccccc2)CCC1(O)c1ccccc1 (stereo unspecified),846
5,O=C(Nc1ccc2nccc(N3CCN4CCC[C@H]4C3)c2c1)c1ccc(Cl)c(Cl)c1,340
6,Cc1onc(-c2ccccc2)c1-c1nc(NC2CCCC(C)C2)no1 (stereo unspecified),836
7,COc1ccc2[nH]ccc(=NN=Cc3cccc(C)n3)c2c1,764
8,COc1ccc2nccc(N3CCC(NCc4ccc5c(n4)NC(=O)CS5)CC3)c2n1,860
9,CC(C)CC1c2[nH]c3ccccc3c2CCN1C(=O)CCc1ccccc1 (stereo unspecified),965
10,Cc1cc(-c2ccc3c(c2)CCN(CCC2CCC(NC(=O)/C=C/c4cccc(Cl)c4)CC2)CC3)on1 (stereo unspecified),589
11,CN(CCCCCNC(=O)/C=C/c1ccc(Cl)c(Cl)c1)CCCCc1c[nH]c2ccccc12,1080
12,Cc1cc(C(=O)N[C@H]2CCN(Cc3ccc(OCCCN(C)C)cc3)C2)ccc1Br,898
13,N#Cc1cccc(NC(=O)Nc2cccc(-c3cccc(-c4nc5ccccc5[nH]4)c3)c2)c1,90.2
14,CC(C)(C)c1ccc(CN2CCC(CNC(=O)c3cc(-c4ccccc4)nc4ccccc34)CC2)cc1,1020
15,CC(Cc1ccc(NC(=O)c2ccc(CNCCc3ccccc3)cc2)cc1)NCCc1cccc(Cl)c1 (stereo unspecified),353
16,CCN(CC)CCOc1ccc(C(O)(C#CC(O)(c2ccc(OCCN(CC)CC)cc2)c2ccc([N+](=O)[O-])cc2)c2ccc([N+](=O)[O-])cc2)cc1 (stereo unspecified),1730
17,O=C(c1cc(C(=O)NC2CCCCC2)c(=O)n(C2CCCCC2)c1)c1cc(F)ccc1O,627
18,COc1ccc(-c2cc(C(=O)Nc3ccc(CCCN(C)Cc4ccc(OC)c(OC)c4)cc3)c3ccccc3n2)cc1,698
19,COc1ccc(CNC(=O)NC2CCN(c3ccnc(Nc4ccc(OC)cc4)n3)C2)cc1 (stereo unspecified),1000
20,CC(C)CNCc1ccc(-c2cccc(CN(CCN(C)C)C(=O)NCCc3ccccc3)c2)cc1,1060
21,CCOc1ccc2[nH]c(C)cc(=NN=Cc3cccnc3)c2c1,155
22,CN(Cc1cccc(O)c1)C1CCCN(c2cc(NC(=O)c3ccc(F)cc3)ccn2)C1 (stereo unspecified),1070
23,COc1ccc(-c2ccc(CNCc3ccsc3)cc2)cc1S(=O)(=O)NCCN1CCCC1,794
24,Cc1c(CN2CCCCC2)cccc1OCCCNc1nc(NCCc2ccc(O)cc2)nc(N2CCNCC2)n1,223

row,SMILES,XC50 [nM]
1,COc1cc(F)c2ncc(Cl)c(CCN3CCC(NCc4ccc5c(c4)OCCO5)CC3)c2c1,469
2,O=C(/C=C/c1ccc(-c2ccccc2)cc1)NCCCCCN1CCC(c2c[nH]c3ccccc23)CC1,854
3,Cc1ccc(/C=C/C(=O)NCCCCCN2CCC(c3c[nH]c4ccccc34)CC2)cc1,1010
4,Cc1nc(-c2cccc(Nc3nccc(NCC(O)c4cccc(F)c4)n3)c2)cs1 (stereo unspecified),699
5,COc1ccccc1CCNc1nc(C)cc(N[C@@H](Cc2ccccc2)C(=O)NCc2cccs2)n1,634
6,CC(C)CN1CCCN(Cc2cccc(NC(=O)c3ccc(Cl)c(Cl)c3)c2)CC1,893
7,CCCCN(C)CC#Cc1ccc(-c2ccc3[nH]c(C)c(Br)c(=O)c3c2)cn1,647
8,CN1CCC(C(=O)N(Cc2ccc(-c3ccc(CNCCc4ccc(S(C)(=O)=O)cc4)cn3)cc2)C2Cc3ccccc3C2)CC1,665
9,COc1ccc(NC(=O)CCNc2cc(C)nc(NCc3ccccc3C)n2)cc1,1070
10,CC[C@H]1CN2CC[C@H]1C[C@H]2[C@H](O)c1cc(-c2ccc(Cl)c(Cl)c2)nc2ccc(OC)cc12,115
11,Cc1cc(N(CCN2CCCCC2)CCN2CCCCC2)nc(Nc2ccc(Cl)cc2)n1,269
12,N#Cc1cccc(-c2cccc(C(=O)NC3CCC(CCN4CCc5ccc(C#N)cc5CC4)CC3)c2)c1 (stereo unspecified),265
13,COc1ccccc1CCNc1nc(C)cc(N[C@@H](Cc2ccccc2)C(=O)NCCCOC(C)C)n1,865
14,N#Cc1ccc(N2CCN(Cc3cccc(-c4ccc(-c5nc6ccccc6[nH]5)cc4)c3)CC2)nc1,1240
15,COc1cc(OC)c(OC)cc1C=NN=c1cc(C)[nH]c2ccccc12,299
16,O=C(Nc1ccc(-c2cccc(-c3nc4ccccc4[nH]3)c2)cc1)NC1CC1c1ccccc1 (stereo unspecified),630
17,Cc1ccc(O)c(C(=O)c2cnc3c(c2)c(-c2ccc(F)cc2)c(C#N)c(=O)n3C)c1,971
18,O=C(/C=C/c1cccs1)NC1CCC(CN2CCC(c3c[nH]c4ccccc34)CC2)CC1 (stereo unspecified),1050
19,CC(=O)Nc1ccc(Nc2ncc([N+](=O)[O-])c(Nc3ccccc3C(N)=O)n2)cc1,366
20,Cc1ccc(C)c(CN2CCC(CNC(=O)c3cc4ccc5cccnc5c4[nH]3)CC2)c1,993
21,O=C1CCCN1CCCNCc1ccc(-c2ccc(-c3nc4cc(F)ccc4[nH]3)cc2)cc1,603
22,Cc1noc(-c2ccc(NC[C@@H](C)NC[C@H](O)c3cccc(Cl)c3)cc2)n1,756
23,O=C(N[C@@H](Cc1ccccc1)C(=O)NC1CCCCC1)c1ccc(O)c(-c2ccc(Cl)c(Cl)c2)c1,231
24,COc1c(C2CCN(CCCCNC(=O)C=Cc3cc4cc(Cl)ccc4o3)CC2)ccc2c1CCCC2,1310

row,SMILES,XC50 [nM]
1,COc1cc(NC(=O)N2CCc3ccc(OCCN4CCCCC4)cc32)cc(C(F)(F)F)c1,266
2,Oc1cccc(C2CCCN(Cc3cccc4cc[nH]c34)C2)c1 (stereo unspecified),507
3,Brc1ccc(C=NNc2nc3ccccc3[nH]2)cc1,700
4,O=c1cc(NCCCNC(c2ccccc2)c2ccc(Cl)c(Cl)c2)[nH]c2ccccc12 (stereo unspecified),1140
5,O=C(Nc1cccc(N2CCC(NCc3cccnc3)CC2)c1)c1cccc(C(F)(F)F)c1,970
6,CN(C)CCOc1cc(NC(=O)Nc2cccc([N+](=O)[O-])c2)ccc1I,743
7,CN(C)CCCn1c(N)c(-c2nc3ccccc3[nH]2)c2nc(C#N)c(C#N)nc21,591
8,Cc1cc(N2CCN(CC3CCN(C)CC3)CC2)nc(Nc2ccc(Cl)cc2)n1,698
9,CN(C)C(=O)O[C@@H]1CN[C@H](C#Cc2cc3ncnc(Nc4ccc5c(cnn5Cc5cccc(F)c5)c4)c3s2)C1,759
10,Cc1nn(C2CCS(=O)(=O)C2)c(C)c1C1Nc2ccccc2C(=O)N1Cc1ccc2c(c1)OCO2 (stereo unspecified),511
11,O=C(Nc1ccc(Br)cc1)N(CCN1CCOCC1)CC(O)COCc1ccc(F)cc1 (stereo unspecified),1040
12,O=C(Nc1ccc([N+](=O)[O-])cc1)c1nn(-c2ccccc2)cc1/N=C/c1cccc(O)c1,890
13,O=C(NCCc1ccccc1F)c1ccc(N2CCN(c3ccncc3)CC2)cn1,1080
14,CCOC(=O)c1ccc(NC(=O)N[C@@H](Cc2ccccc2)C(=O)NC2CCN(Cc3ccc(O)c(OC)c3)C2)cc1 (stereo partly specified),989
15,COc1ccc2ncn(-c3ccc(C(N)=O)c(OCc4ccccc4C(F)(F)F)c3)c2c1,540
16,CCC[C@@H]([C@@H](CC1CCCCC1)C(=O)N[C@H](C(=O)Nc1nccs1)C(C)(C)SC)N(O)C=O,152
17,Cc1cc(NCc2ccccc2)nc(NCc2ccccc2)n1,974
18,CCc1c(CCNCCCCCNCCc2ccc(OC)c(OC)c2CC)ccc(OC)c1OC,1110
19,Fc1ccc2[nH]c(-c3ccc(-c4cccc(CN5CCCCC5)c4)cc3)nc2c1,267
20,Nc1nc(N)c(-c2ccccc2)c(=O)[nH]1,1000
21,O=C(NCc1ccc(F)cc1)c1ccc(N2CCN(c3ccncc3)CC2)cn1,886
22,NC(=O)C1CCN(Cc2ccc(-c3ccc(-c4nc5cc(F)ccc5[nH]4)cc3)cc2)CC1,809
23,CCOc1ccc(-c2nonc2NC(=O)c2cccs2)cc1OCC,756
24,COc1cc(-c2nc(C(C)(C)CN)[nH]c2-c2ccncc2)ccc1Br,769

row,SMILES,XC50 [nM]
1,O=C(Nc1cccc(CN2CCCN(Cc3ccccc3)CC2)c1)c1cc2ccccc2s1,1200
2,COc1cc(C2CCN(CCCCNC(=O)c3ccc(NC(=O)c4cc(C(F)(F)F)cc(C(F)(F)F)c4)cc3)CC2)ccc1OC(C)C,154
3,O=c1cc(NCCCNCc2sc(Br)c(Br)c2Br)[nH]c2ccccc12,1010
4,Cc1ccccc1C1CCN(C2CCC(NC(=O)/C=C/c3cc(C(F)(F)F)ccc3F)CC2)CC1 (stereo unspecified),839
5,CN(C)CCOc1cc(NC(=O)Nc2ccc3c(c2)CCCC3=O)ccc1I,939
6,N#Cc1cnc(Nc2ccc(Oc3ccccc3)cc2)nc1Nc1cccc(S(N)(=O)=O)c1,555
7,Cc1cc(NC(=O)c2coc3cc(F)c(N4CC(C)N(C)C(C)C4)cc23)cnc1-c1ccc(C#N)cc1 (stereo unspecified),695
8,CCCNCc1ccc(-c2ccc(CN(CCOC)C(=O)/C=C/c3ccccc3C)cc2)nc1,903
9,CC[C@H]1CN2CC[C@@H]1C[C@H]2[C@H](O)c1cc(-c2c(C)noc2C)nc2ccc(OC)cc12,33
10,CCCCCCN1CCC(CNCc2cccc(Cl)c2)CC1,1220
11,CN1CCOc2ccc(Nc3nnc(-c4cccc(-c5cccnc5)c4)o3)cc2C1,104
12,COc1cc2nc(NCCCO)nc(Nc3ccc(Oc4ccccc4)cc3)c2cc1OC,145
13,O=C1C(c2ccccc2)=C(Nc2ccc(Cl)cc2)c2ccccc21,613
14,Cc1cc(C)cc(N2C(N)=NC(N)=NC2(C)C)c1,42
15,CC(C)(C)c1ccc2[nH]c(-c3ccc(C(=O)NC4CCN(Cc5ccccc5)CC4)s3)nc2c1,359
16,O=C(NC1CCN(CCN2CCC(c3cn(CCO)c4ccccc34)CC2)CC1)c1ccc(-c2ccc(C(F)(F)F)cc2)cc1,740
17,O=C(NCC1CCN(Cc2ccc3c(c2)OCCO3)C1)c1cc(-c2cccc(C(F)(F)F)c2)cs1 (stereo unspecified),978
18,CCCCCCN1CCC(NCc2ccc(CN(C)C)cc2)CC1,1270
19,Nc1c(Cl)cc(C(O)CNCCCCCCOCCC=C2CCOCC2)cc1Cl (stereo unspecified),634
20,COCCNc1nc(N2CCC(CNC(=O)c3ccc(-c4ccc(C(=O)N(C)C)cc4C)cc3)CC2)nc2cc(OC)c(OC)cc12,1020
21,N#Cc1ccc(-c2ccc(C(=O)NCC3CCN(CCN4CCC(c5ccc6c(c5OCC(N)=O)CCCC6)CC4)CC3)cc2)cc1,443
22,Cc1[nH]c(C)c(-c2ccc(-c3ccc(C#N)cc3)nc2)c(=O)c1Br,981
23,O=C(Nc1ccc2c(c1)CNCC2)c1ccc(-c2ccc(Cl)cc2)cc1,662
